Results from paper PMC5218480 (PLoS ONE, 2017).

Test system: MV-4-11 cells
Experiment: Gene expression microarray analysis (Affymetrix PrimeView) and GSEA
Type: cell-based, human
Set-up: RFU PODN (11730768_x_at) / Fold change /veh PODN (11730768_x_at) / RFU LINC00158 (11744669_a_at) / Fold change /veh LINC00158 (11744669_a_at) / RFU DUSP10 (11751237_a_at) / Fold change /veh DUSP10 (11751237_a_at) / RFU ID3 (11757404_x_at) / Fold change /veh ID3 (11757404_x_at) / RFU PLEKHG5 (11737974_s_at) / Fold change /veh PLEKHG5 (11737974_s_at) / RFU LRRC4B (11730491_at) / Fold change /veh LRRC4B (11730491_at) / RFU GIMAP4 (11747438_a_at) / Fold change /veh GIMAP4 (11747438_a_at) / RFU KRT8 (11758183_x_at) / Fold change /veh KRT8 (11758183_x_at) / RFU CNN1 (11734310_a_at) / Fold change /veh CNN1 (11734310_a_at) / RFU VPS37D (11726825_at) / Fold change /veh VPS37D (11726825_at) / RFU C10orf10 (11716522_x_at) / Fold change /veh C10orf10 (11716522_x_at) / RFU KIR2DL2 /// KIR2DL4 /// KIR2DL5A /// KIR2DL5B /// KIR2DS1 /// KIR2DS2 /// KIR2DS3 /// KIR2DS4 /// KIR3DL3 /// KIR3DL3 /// KIR3DS1 (11738374_at) / Fold change /veh KIR2DL2 /// KIR2DL4 /// KIR2DL5A /// KIR2DL5B /// KIR2DS1 /// KIR2DS2 /// KIR2DS3 /// KIR2DS4 /// KIR3DL3 /// KIR3DL3 /// KIR3DS1 (11738374_at) / RFU C1QL1 (11718748_at) / Fold change /veh C1QL1 (11718748_at) / RFU TMPRSS4 (11747572_a_at) / Fold change /veh TMPRSS4 (11747572_a_at) / RFU HAMP (11756126_x_at) / Fold change /veh HAMP (11756126_x_at) / RFU RNFT2 (11725882_a_at) / Fold change /veh RNFT2 (11725882_a_at) / RFU NR4A2 (11747474_a_at) / Fold change /veh NR4A2 (11747474_a_at) / RFU ABCC12 (11746883_a_at) / Fold change /veh ABCC12 (11746883_a_at) / RFU TMEM136 (11760407_x_at) / Fold change /veh TMEM136 (11760407_x_at) / RFU CLDN22 /// WWC2 (11732394_at) / Fold change /veh CLDN22 /// WWC2 (11732394_at) / RFU HLA-DPB1 (11760878_x_at) / Fold change /veh HLA-DPB1 (11760878_x_at) / RFU SPINT1 (11716480_a_at) / Fold change /veh SPINT1 (11716480_a_at) / RFU GAP43 (11754022_s_at) / Fold change /veh GAP43 (11754022_s_at) / RFU A4GNT (11735810_at) / Fold change /veh A4GNT (11735810_at) / RFU PRB3 (11715151_x_at) / Fold change /veh PRB3 (11715151_x_at) / RFU TUBB4B (11761932_at) / Fold change /veh TUBB4B (11761932_at) / RFU CAPN14 (11732068_a_at) / Fold change /veh CAPN14 (11732068_a_at) / RFU TMCC2 (11721928_a_at) / Fold change /veh TMCC2 (11721928_a_at) / RFU IRGQ (11745062_a_at) / Fold change /veh IRGQ (11745062_a_at) / RFU FAM174B (11720279_a_at) / Fold change /veh FAM174B (11720279_a_at) / RFU TMPRSS4 (11748680_a_at) / Fold change /veh TMPRSS4 (11748680_a_at) / RFU FAM212B (11763350_a_at) / Fold change /veh FAM212B (11763350_a_at) / RFU PLEKHG5 (11743358_a_at) / Fold change /veh PLEKHG5 (11743358_a_at) / RFU ZSCAN30 (11745921_a_at) / Fold change /veh ZSCAN30 (11745921_a_at) / RFU CMKLR1 (11741424_a_at) / Fold change /veh CMKLR1 (11741424_a_at) / RFU LOC101060620 /// MAPK8IP1 (11723275_at) / Fold change /veh LOC101060620 /// MAPK8IP1 (11723275_at) / RFU SPTSSB (11747773_x_at) / Fold change /veh SPTSSB (11747773_x_at) / RFU PRSS12 (11739890_at) / Fold change /veh PRSS12 (11739890_at) / RFU BIN1 (11741810_x_at) / Fold change /veh BIN1 (11741810_x_at) / RFU WNT11 (11732464_a_at) / Fold change /veh WNT11 (11732464_a_at) / RFU C10orf10 (11716521_a_at) / Fold change /veh C10orf10 (11716521_a_at) / RFU C5orf56 (11738089_at) / Fold change /veh C5orf56 (11738089_at) / RFU CYB561 (11721691_x_at) / Fold change /veh CYB561 (11721691_x_at) / RFU ANKRD19P (11752326_a_at) / Fold change /veh ANKRD19P (11752326_a_at) / RFU OR2T12 /// OR2T33 /// OR2T8 (11738714_s_at) / Fold change /veh OR2T12 /// OR2T33 /// OR2T8 (11738714_s_at) / RFU VCAN (11748164_a_at) / Fold change /veh VCAN (11748164_a_at) / RFU JSRP1 (11732532_at) / Fold change /veh JSRP1 (11732532_at) / RFU KRTAP10-11 (11738290_x_at) / Fold change /veh KRTAP10-11 (11738290_x_at) / RFU MYO3A (11730013_a_at) / Fold change /veh MYO3A (11730013_a_at) / RFU EBF3 (11725865_a_at) / Fold change /veh EBF3 (11725865_a_at) / RFU CAMK2N1 (11719241_x_at) / Fold change /veh CAMK2N1 (11719241_x_at) / RFU C5orf56 (11738088_a_at) / Fold change /veh C5orf56 (11738088_a_at) / RFU OLFML3 (11715873_a_at) / Fold change /veh OLFML3 (11715873_a_at) / RFU LOC100653217 /// NTM (11731650_a_at) / Fold change /veh LOC100653217 /// NTM (11731650_a_at) / RFU MAPK11 (11762145_a_at) / Fold change /veh MAPK11 (11762145_a_at) / RFU FIZ1 (11724087_x_at) / Fold change /veh FIZ1 (11724087_x_at) / RFU OASL (11726364_x_at) / Fold change /veh OASL (11726364_x_at) / RFU SOX15 (11748057_x_at) / Fold change /veh SOX15 (11748057_x_at) / RFU CD79A (11719716_a_at) / Fold change /veh CD79A (11719716_a_at) / RFU HIST1H1D (11736915_at) / Fold change /veh HIST1H1D (11736915_at) / RFU CASKIN2 (11723855_a_at) / Fold change /veh CASKIN2 (11723855_a_at) / RFU LOC730098 (11760151_x_at) / Fold change /veh LOC730098 (11760151_x_at) / RFU OR4N2 (11742367_at) / Fold change /veh OR4N2 (11742367_at) / RFU PRRT2 (11749266_a_at) / Fold change /veh PRRT2 (11749266_a_at) / RFU SNX32 (11753110_a_at) / Fold change /veh SNX32 (11753110_a_at) / RFU CDHR5 (11726645_a_at) / Fold change /veh CDHR5 (11726645_a_at) / RFU RCAN1 (11760418_a_at) / Fold change /veh RCAN1 (11760418_a_at) / RFU FAM167A (11723789_a_at) / Fold change /veh FAM167A (11723789_a_at) / RFU FAM26E (11764081_at) / Fold change /veh FAM26E (11764081_at) / RFU ISYNA1 (11749810_s_at) / Fold change /veh ISYNA1 (11749810_s_at) / RFU ACY1 (11761880_at) / Fold change /veh ACY1 (11761880_at) / RFU 11764098_at / Fold change /veh 11764098_at / RFU SAMD14 (11745864_x_at) / Fold change /veh SAMD14 (11745864_x_at) / RFU NPB (11741838_a_at) / Fold change /veh NPB (11741838_a_at) / RFU TMPRSS6 (11731388_a_at) / Fold change /veh TMPRSS6 (11731388_a_at) / RFU KRTAP10-2 (11738614_at) / Fold change /veh KRTAP10-2 (11738614_at) / RFU ARHGAP8 /// PRR5-ARHGAP8 (11727945_x_at) / Fold change /veh ARHGAP8 /// PRR5-ARHGAP8 (11727945_x_at) / RFU KRTAP5-7 /// NADSYN1 (11734609_at) / Fold change /veh KRTAP5-7 /// NADSYN1 (11734609_at) / RFU RASL12 (11751679_a_at) / Fold change /veh RASL12 (11751679_a_at) / RFU CDKN2B (11736163_a_at) / Fold change /veh CDKN2B (11736163_a_at) / RFU PRF1 (11729649_at) / Fold change /veh PRF1 (11729649_at) / RFU, ZNF638 /// ZNF638-IT1 / Fold change vs veh, ZNF638 /// ZNF638-IT1 / RFU, PANK3 / Fold change vs veh, PANK3 / RFU, SH3YL1 / Fold change vs veh, SH3YL1 / RFU, ZEB2 / Fold change vs veh, ZEB2 / RFU, NRIP1 / Fold change vs veh, NRIP1 / RFU, PTTG1IP / Fold change vs veh, PTTG1IP / RFU, CAPN2 / Fold change vs veh, CAPN2 / RFU, MED14 / Fold change vs veh, MED14 / RFU, SNORA58 / Fold change vs veh, SNORA58 / RFU, C1orf63 / Fold change vs veh, C1orf63 / RFU, LRRFIP1 / Fold change vs veh, LRRFIP1 / RFU, NDUFAF7 / Fold change vs veh, NDUFAF7 / RFU, SLC12A2 / Fold change vs veh, SLC12A2 / RFU, IBTK / Fold change vs veh, IBTK / RFU, ESF1 / Fold change vs veh, ESF1 / Fold change vs veh, TMEM50B / RFU, TAOK1 / Fold change vs veh, TAOK1 / RFU, ACBD3 / Fold change vs veh, ACBD3 / RFU, TMA16 / Fold change vs veh, TMA16 / RFU, RWDD3 / Fold change vs veh, RWDD3 / RFU, BCAT1 / Fold change vs veh, BCAT1 / RFU, EDEM3 / Fold change vs veh, EDEM3 / RFU, TMEM33 / Fold change vs veh, TMEM33 / RFU, WDR75 / Fold change vs veh, WDR75 / RFU, AHCTF1 / Fold change vs veh, AHCTF1 / RFU, TFRC / Fold change vs veh, TFRC / RFU, ZDHHC17 / Fold change vs veh, ZDHHC17 / RFU, NOM1 / Fold change vs veh, NOM1 / RFU, ARL8B / Fold change vs veh, ARL8B / RFU, ZBTB11 / Fold change vs veh, ZBTB11 / RFU, TAMM41 / Fold change vs veh, TAMM41 / RFU, KIAA1704 /// LOC100996395 / Fold change vs veh, KIAA1704 /// LOC100996395 / RFU, ING1 / Fold change vs veh, ING1 / RFU, TRMT61B / Fold change vs veh, TRMT61B / RFU, FUBP3 / Fold change vs veh, FUBP3 / RFU, TP53 / Fold change vs veh, TP53 / RFU, TNKS2 / Fold change vs veh, TNKS2 / RFU, ZFP14 / Fold change vs veh, ZFP14 / RFU, ACTR2 / Fold change vs veh, ACTR2 / RFU, PPP3R1 / Fold change vs veh, PPP3R1 / RFU, PIK3R1 / Fold change vs veh, PIK3R1 / RFU, HNRNPA1 / Fold change vs veh, HNRNPA1 / RFU, RNF170 / Fold change vs veh, RNF170 / RFU, ZNF28 / Fold change vs veh, ZNF28 / RFU, RNGTT / Fold change vs veh, RNGTT / RFU, OGT / Fold change vs veh, OGT / RFU, BRD1 / Fold change vs veh, BRD1 / RFU, MARS / Fold change vs veh, MARS / RFU, ZNF655 / Fold change vs veh, ZNF655 / RFU, FAHD1 / Fold change vs veh, FAHD1 / RFU, BDP1 / Fold change vs veh, BDP1 / RFU, LRRCC1 / Fold change vs veh, LRRCC1 / RFU, ARID1A / Fold change vs veh, ARID1A / RFU, ZNF146 / Fold change vs veh, ZNF146 / RFU, ZNF330 / Fold change vs veh, ZNF330 / RFU, GPN3 / Fold change vs veh, GPN3 / RFU, C9orf123 / Fold change vs veh, C9orf123 / RFU, N4BP2L2 / Fold change vs veh, N4BP2L2 / RFU, ARFIP1 / Fold change vs veh, ARFIP1 / RFU, FAM179B / Fold change vs veh, FAM179B / RFU, BCL10 / Fold change vs veh, BCL10 / RFU, UHRF1BP1L / Fold change vs veh, UHRF1BP1L / RFU, BET1 / Fold change vs veh, BET1 / RFU, CNOT2 / Fold change vs veh, CNOT2 / RFU, ZNF268 / Fold change vs veh, ZNF268 / Fold change vs veh, ZNF507 / RFU, DGCR2 / Fold change vs veh, DGCR2 / RFU, WDSUB1 / Fold change vs veh, WDSUB1 / Fold change vs veh, HSP90B1 /// MIR3652 / RFU, ADSS / Fold change vs veh, ADSS / RFU, GK / Fold change vs veh, GK / RFU, ZNF148 / Fold change vs veh, ZNF148 / RFU, TAF9 / Fold change vs veh, TAF9 / RFU, SLC1A5 / Fold change vs veh, SLC1A5 / RFU, SLMO2 / Fold change vs veh, SLMO2 / RFU, ABCC4 / Fold change vs veh, ABCC4 / RFU, LOC101060439 /// RAP1B / Fold change vs veh, LOC101060439 /// RAP1B / RFU, RFX7 / Fold change vs veh, RFX7 / RFU, GTPBP10 / Fold change vs veh, GTPBP10 / RFU, CNEP1R1 / Fold change vs veh, CNEP1R1 / RFU, BIVM-ERCC5 /// ERCC5 / Fold change vs veh, BIVM-ERCC5 /// ERCC5 / RFU, ILF3 / Fold change vs veh, ILF3 / RFU 11762660_at / Fold change /veh 11762660_at / RFU VCAN (11757783_s_at) / Fold change /veh VCAN (11757783_s_at) / RFU DDX43 (11728927_at) / Fold change /veh DDX43 (11728927_at) / RFU KRT8 (11758188_x_at) / Fold change /veh KRT8 (11758188_x_at) / RFU NKD1 (11759106_at) / Fold change /veh NKD1 (11759106_at) / RFU SRD5A1 (11742802_a_at) / Fold change /veh SRD5A1 (11742802_a_at) / RFU TPSAB1 /// TPSB2 (11721975_s_at) / Fold change /veh TPSAB1 /// TPSB2 (11721975_s_at) / RFU GSTM3 (11746129_a_at) / Fold change /veh GSTM3 (11746129_a_at) / RFU IL23R (11737362_x_at) / Fold change /veh IL23R (11737362_x_at) / RFU TMEM51 (11727254_a_at) / Fold change /veh TMEM51 (11727254_a_at) / RFU PIWIL2 (11732686_x_at) / Fold change /veh PIWIL2 (11732686_x_at) / RFU ORM1 (11744905_x_at) / Fold change /veh ORM1 (11744905_x_at) / RFU CCDC152 (11743942_at) / Fold change /veh CCDC152 (11743942_at) / RFU ECM1 (11717891_a_at) / Fold change /veh ECM1 (11717891_a_at) / RFU IL23R (11748794_a_at) / Fold change /veh IL23R (11748794_a_at) / RFU TNFAIP8L3 (11732012_x_at) / Fold change /veh TNFAIP8L3 (11732012_x_at) / RFU MBOAT4 (11741988_at) / Fold change /veh MBOAT4 (11741988_at) / RFU 11764193_at / Fold change /veh 11764193_at / RFU TMEM53 (11763286_at) / Fold change /veh TMEM53 (11763286_at) / RFU MAGEB2 (11727129_at) / Fold change /veh MAGEB2 (11727129_at) / RFU TMEM200A (11744735_a_at) / Fold change /veh TMEM200A (11744735_a_at) / RFU CCDC152 (11751479_a_at) / Fold change /veh CCDC152 (11751479_a_at) / RFU FAM211A (11726209_a_at) / Fold change /veh FAM211A (11726209_a_at) / RFU RGS16 (11746705_a_at) / Fold change /veh RGS16 (11746705_a_at) / RFU VCAN (11755009_s_at) / Fold change /veh VCAN (11755009_s_at) / RFU RHOB (11743442_s_at) / Fold change /veh RHOB (11743442_s_at) / RFU RGS16 (11720943_a_at) / Fold change /veh RGS16 (11720943_a_at) / RFU RGS16 (11720944_at) / Fold change /veh RGS16 (11720944_at) / RFU, VPS4B / Fold change vs veh, VPS4B / RFU, CREB1 / Fold change vs veh, CREB1 / RFU, DNAJC13 / Fold change vs veh, DNAJC13 / RFU, GNAQ / Fold change vs veh, GNAQ / RFU, CDK5R1 / Fold change vs veh, CDK5R1 / RFU, ZRANB3 / Fold change vs veh, ZRANB3 / RFU, CUL4A / Fold change vs veh, CUL4A / RFU, CCNY / Fold change vs veh, CCNY / RFU, UFL1 / Fold change vs veh, UFL1 / RFU, COG3 / Fold change vs veh, COG3 / RFU, DIAPH2 / Fold change vs veh, DIAPH2 / RFU, SKA2 / Fold change vs veh, SKA2 / RFU, AFF3 / Fold change vs veh, AFF3 / RFU, LMF1 / Fold change vs veh, LMF1 / RFU, IPO11 / Fold change vs veh, IPO11 / RFU, DFFB / Fold change vs veh, DFFB / RFU, FOXP1 / Fold change vs veh, FOXP1 / RFU, CARD8 / Fold change vs veh, CARD8 / RFU, STRN3 / Fold change vs veh, STRN3 / RFU, ADK / Fold change vs veh, ADK / RFU, RASSF2 / Fold change vs veh, RASSF2 / RFU, WIPF1 / Fold change vs veh, WIPF1 / RFU, LARP1B / Fold change vs veh, LARP1B / RFU, RASA1 / Fold change vs veh, RASA1 / RFU, RB1 / Fold change vs veh, RB1 / RFU, PPFIA1 / Fold change vs veh, PPFIA1 / RFU, MAT2A / Fold change vs veh, MAT2A / RFU, CCT5 / Fold change vs veh, CCT5 / RFU, WDR92 / Fold change vs veh, WDR92 / RFU, CUX1 / Fold change vs veh, CUX1 / RFU, TTC7A / Fold change vs veh, TTC7A / RFU, TMEM135 / Fold change vs veh, TMEM135 / RFU, DEPTOR / Fold change vs veh, DEPTOR / RFU, CPM / Fold change vs veh, CPM / RFU, DNAJB6 / Fold change vs veh, DNAJB6 / RFU, CACNA2D3 / Fold change vs veh, CACNA2D3 / RFU, DTX4 / Fold change vs veh, DTX4 / RFU, TFCP2 / Fold change vs veh, TFCP2 / RFU, GMCL1 /// GMCL1P1 / Fold change vs veh, GMCL1 /// GMCL1P1 / RFU, AEBP2 / Fold change vs veh, AEBP2 / RFU, SNHG1 /// SNORD22 /// SNORD25 /// SNORD26 /// SNORD27 /// SNORD28 /// SNORD29 /// SNORD31 / Fold change vs veh, SNHG1 /// SNORD22 /// SNORD25 /// SNORD26 /// SNORD27 /// SNORD28 /// SNORD29 /// SNORD31 / Fold change (Aza/veh), C12orf56 (ProbeSet 11735607_a_at) / Fold change (ACY-1035/veh), C12orf56 (ProbeSet 11735607_a_at) / Fold change (Aza/veh), FGFR1OP (ProbeSet 11751329_s_at) / Fold change (ACY-1035/veh), FGFR1OP (ProbeSet 11751329_s_at) / Fold change (Aza/veh), VPS36 (ProbeSet 11739960_a_at) / Fold change (ACY-1035/veh), VPS36 (ProbeSet 11739960_a_at) / RFU SYPL1 (11715823_x_at) / Fold change /veh SYPL1 (11715823_x_at) / RFU IGFBP7 (11715501_s_at) / Fold change /veh IGFBP7 (11715501_s_at) / RFU REEP3 (11722064_at) / Fold change /veh REEP3 (11722064_at) / RFU IGLL1 (11728026_x_at) / Fold change /veh IGLL1 (11728026_x_at): dose or concentration left out as unconfirmed
Conditions: ProbeSet 11733831_s_at; LIST D

In the case of Nc1ncn([C@@H]2O[C@H](CO)[C@@H](O)[C@H]2O)c(=O)n1 [azacitidine], the “RFU, GMCL1 /// GMCL1P1” value is reported as 32.38 RFU.
